Test results taken from ChEMBL document CHEMBL5303711, “ECBD screening data for assay EOS300108” (2023).
Structures can show the parent of a compound that is named as a salt. Calls of active or inactive are those of the source. How the calls were made is not given here.

Test: Cytotoxicity activity against human HepG2 cells assessed by CellTiter-Glo luminescent cell viability assay.
Assay type: toxicity, cell-based
Set-up: assay stage confirmatory assay, source tissue liver
Conditions: HepG2 cells, read-out: IC50 relative

SMILES | CC50
O=S(=O)(c1ccccc1)N(CC(F)(F)F)c1ccc(C(O)(C(F)(F)F)C(F)(F)F)cc1 [T091317] | 13.4 µM (inactive)
CC(C)c1cnc(NC(=O)N2CC[C@H](Nc3ccc4nccn4n3)C2)s1 | 3.2 µM (active)
COc1ccc(OC[C@@H](O)CN(C)Cc2ccc(C)o2)c(C(C)(C)C)c1 | 21.3 µM (inactive)
N#Cc1cnn(C(=O)c2ccc(OCc3ccccc3)cc2)c1N | 6.1 µM (inactive)
COc1ccc(Cl)cc1CNCC1CCN(C[C@H](C)O)CC1 | 10.2 µM (active)
CC(C)(C)NC(=O)NC(=O)CNc1ccccc1C(=O)Nc1ccc(F)cc1 | 50 µM (inactive)
COc1cc(F)cc2sc(NC(=O)c3cc(N4CCOCC4)ccn3)nc12 | 48.8 µM (inactive)
CN(C)c1ccnc(CNC(=O)Nc2ncc(C(F)(F)F)s2)c1 | 0.6 µM (active)
CN(C)Cc1ccc(C(=O)Nc2nc3c(s2)CCCC3)cc1 | 11.3 µM (active)
CNCCCC1c2ccccc2C=Cc2ccccc21 [PROTRIPTYLINE HYDROCHLORIDE] | 8.9 µM (active)
Nc1nc(N)c2c(OCC3CCN(Cc4c(Cl)cccc4Cl)CC3)cccc2n1 | 4 µM (active)
C[C@H](O)CN1CCC(CNCc2ccc(Cl)cc2)CC1 | 7.6 µM (active)
C[C@]12CCC(=O)C=C1CC[C@@H]1[C@@H]2CC[C@]2(C)C(c3cccnc3)=CC[C@@H]12 | 28 µM (inactive)
CC(=O)N1c2ccc(S(=O)(=O)N3CCOCC3)cc2CC1C(=O)NCCN1CCCCCC1 (configuration not stated) | 50 µM (inactive)
CC(C)n1ncc2cc(NC(=O)c3cc4ccccc4cc3O)cnc21 | 10 µM (inactive)
O=C(C1CCCC1)N1CC(Oc2ccc(-c3noc(C4CCOCC4)n3)cc2)C1 | 3.2 µM (active)
O=C(Nc1ccc([N+](=O)[O-])cc1O)Nc1ccccc1Br | 8.9 µM (active)
CN(C)C1CCN(C(=O)c2ccc(NC(=O)Nc3ccc(-c4nc(N5CCOCC5)nc(N5CCOCC5)n4)cc3)cc2)CC1 [GEDATOLISIB] | 1.7 µM (active)
C=CCn1c(=O)c2cnc(Nc3ccc(N4CCN(C)CC4)cc3)nc2n1-c1cccc(C(C)(C)O)n1 [ADAVOSERTIB] | 4.5 µM (active)
CNC(=O)c1ccccc1Nc1nc(Nc2ccc3c(c2OC)CCC[C@H](N2CCN(CCO)CC2)C3)ncc1Cl [CEP-37440] | 0.8 µM (active)
O=c1cc(CSc2ccccc2)nc2sc(-c3ccco3)nn12 | 3.2 µM (active)
CCC(C)NC(=O)N1CC(Oc2ccc(-c3noc(-c4cccnc4)n3)cc2)C1 (configuration not stated) | 4.5 µM (active)

SMILES | CC50
Cc1csc(NC(=O)CC[C@@H]2NC(=O)N(CCc3cccc(F)c3)C2=O)n1 | 8.9 µM (active)
O=C(CC1CCCN(c2cn[nH]c(=O)c2)C1)Nc1cccc(Cl)c1 (configuration not stated) | 8.1 µM (active)
CC[C@@H]1[C@H](F)C(=O)N[C@@H]1COc1nccc2cc(C(N)=O)c(OC)cc12 [ZIMLOVISERTIB] | 6 µM (active)
CC(C)c1ccc(NC(=O)c2ccc(N3CCOCC3)nc2)cc1 | 10.5 µM (inactive)
COc1cc(F)ccc1NC(=O)c1ccc(-c2ccccn2)[nH]c1=O | 11 µM (active)
CCN(CC)C(=S)S [DITIOCARB SODIUM] | 6.6 µM (active)
CC[C@H](C)C(=O)O[C@H]1CCC=C2C=C[C@H](C)[C@H](CC[C@@H]3C[C@@H](O)CC(=O)O3)[C@H]21 [MEVASTATIN] | 33.3 µM (inactive)
CC(=O)c1ccc(-c2ccc(C(=O)Nc3ncc(C)o3)o2)cc1 | 4.2 µM (active)
CC(=O)Nc1nc(C)c(-c2ccc(Cl)c(S(=O)(=O)NCCO)c2)s1 | 4 µM (active)
Cc1n[nH]c(C)c1CC(=O)Nc1cnn([C@@H](C)C2CC2)c1 | 50 µM (inactive)
COCCCN(C(=O)CCl)c1nc(-c2ccc(OC)cc2)cs1 | 1.5 µM (active)
Cc1cc(=O)n2nc(Sc3ncc4ccccn34)sc2n1 | 12.1 µM (active)
O=C(Nc1c[nH]nc1-c1nc2cc(CN3CCOCC3)ccc2[nH]1)NC1CC1 [AT-9283] | 1.2 µM (active)
COc1cc(NS(C)(=O)=O)ccc1Nc1c2ccccc2nc2ccccc12 [AMSACRINE] | 2.7 µM (active)
CN(c1ccccc1)S(=O)(=O)c1ccc(C(=O)N2CCN(CCOc3ccccc3)CC2)cc1 | 9.1 µM (active)
O=[N+]([O-])c1ccc(Sc2cccc[n+]2[O-])c2nonc12 | 0.6 µM (active)
Cc1cc(C)c(Nc2ccnc(Nc3ccc(C#N)cc3)n2)c(C)c1 [DAPIVIRINE] | 6.5 µM (active)
O=C(CCn1sc2ccccc2c1=O)NCCc1c[nH]c2ccccc12 | 5 µM (active)
Cc1c(CN2CCN(C(=O)[C@H](C)O)CC2)sc2c(N3CCOCC3)nc(-c3cnc(N)nc3)nc12 [APITOLISIB] | 1.5 µM (active)
Cc1ccc([C@H](CC(=O)c2ccco2)SCCO)cc1 | 11.4 µM (active)
O=C(c1cc(-c2ccco2)on1)N1CCc2ccccc21 | 8.6 µM (active)
CCn1c(NC(=O)c2ccc(=O)n(CCOc3ccccc3)n2)nc2ccccc21 | 4.6 µM (active)

SMILES | CC50
CCCCn1nnnc1Cn1ncc(Cl)c(Cl)c1=O | 3 µM (active)
CCOc1ncccc1C(=O)Nc1nc2cc(C#N)ccc2n1CC | 5.9 µM (active)
CCN(CC)CCN(C(C)=O)c1nc2cc(C)cc(C)c2s1 | 8.6 µM (active)
c1cc2c(cc1-c1ccc3c(n1)CCCN3)CCN2 | 13.5 µM (inactive)
CC1=NNc2nc3c(c(=O)n(Cc4ccccc4Cl)c(=O)n3C)n2[C@H]1C | 21.1 µM (inactive)
NS(=O)(=O)c1ccc(S(=O)(=O)Nc2cccc3c(Cl)c[nH]c23)cc1 | 13.6 µM (inactive)
COc1ccccc1-c1nnc(-c2ccccc2O)o1 | 5.3 µM (active)
CCC(C)C1OC2(CCC1C)CC1CC(C/C=C(/C)C(OC3CC(OC)C(OC4CC(OC)C(O)C(C)O4)C(C)O3)C(C)/C=C\C=C3\COC4C(O)C(C)=CC(C(=O)O1)C34O)O2 (configuration not stated) | 11.1 µM (active)
C=CC(=O)Nc1ccc2ncnc(Nc3ccc(OCc4cccc(F)c4)c(Cl)c3)c2c1 | 7.7 µM (active)
O=C(CCN1CCN(C(=O)OCc2cc(Cl)cc(Cl)c2)CC1)c1ccc2[nH]c(=O)oc2c1 | 20.6 µM (inactive)
COc1ccc(NC(=O)Nc2ccc3nc(S(C)(=O)=O)sc3c2)cc1 | 17.5 µM (inactive)
Cc1ccc(C)c(N2CCN(CCCNC(=O)CC3Oc4ccccc4NC3=O)CC2)c1 (configuration not stated) | 15.7 µM (active)
CN(C)CC[C@H](CSc1ccccc1)Nc1ccc(S(=O)(=O)NC(=O)c2ccc(N3CCN(Cc4ccccc4-c4ccc(Cl)cc4)CC3)cc2)cc1[N+](=O)[O-] [ABT 737] | 13.2 µM (active)
N#Cc1cnc(Nc2cc(NC[C@H]3CNCCO3)c(C(F)(F)F)cn2)cn1 [SRA-737] | 7.2 µM (active)
CC(C)CN1CCN(Cc2nc(Cn3ccn4nc(-c5ccccc5)cc4c3=O)no2)CC1 | 13.6 µM (active)
CNc1ncc2cc(-c3ccc(-c4cccc(C)n4)cc3Cl)c(=O)n(C[C@H]3OC[C@H](N)CO3)c2n1 | 4.5 µM (active)
CN(C)CCNC(=O)Cn1c(-c2ccccc2)nn(-c2ccc(Cl)cc2)c1=O | 6.5 µM (active)
CC(C)N1CC(CN)C2(CCCCC2)C1 (configuration not stated) | 11.6 µM (active)
COc1ccccc1OCC(=O)Nc1nc(-c2ccccn2)cs1 | 2.7 µM (active)
Cc1nc(Nc2n[nH]c3c2CN(C(=O)N[C@H](CN(C)C)c2ccccc2)C3(C)C)c2sccc2n1 [PF-03758309] | 0.4 µM (active)
Cn1ncnc2c(=O)n(C)c(=O)nc1-2 | 0.2 µM (active)
Cc1cc(N2CCNCC2)nc2c(C)cccc12 | 11.1 µM (active)

SMILES | CC50
COc1ccc2cc(C(=O)Nc3ccc4oc(=O)[nH]c4c3)[nH]c2c1 | 32.5 µM (inactive)
CC(C)(C)c1ccc(CSc2cnn(C(C)(C)C)c(=O)c2Cl)cc1 [PYRIDABEN] | 0.3 µM (active)
CCc1ccc2nc(N3CCC(C(=O)NCCN(CC)CC)CC3)sc2c1 | 3.1 µM (active)
C=CC(=O)Nc1ccc(CN(C(=O)Nc2c(Cl)c(OC)cc(OC)c2Cl)c2cc(Nc3ccc(N4CCN(C)CC4)cc3)ncn2)cc1 | 4.7 µM (active)
CCC(C)NC(=O)N1CC(Oc2ccc(-c3noc(-c4ccncc4)n3)cc2)C1 (configuration not stated) | 3.8 µM (active)
CCCc1cc(C)[nH]c(=O)c1CNC(=O)c1cc(-c2ccc(N3CCN(C)CC3)nc2)nc2c1cnn2C(C)C | 7.5 µM (active)
Brc1c(Br)c(Br)c2[nH]cnc2c1Br | 7.4 µM (active)
C=CCNC1=C2C[C@@H](C)C[C@H](OC)[C@H](O)[C@@H](C)/C=C(/C)[C@H](OC(N)=O)[C@@H](OC)/C=C\C=C(\C)C(=O)NC(=CC1=O)C2=O | < 0.1 µM (active)
CCCc1cc(C(=O)NCC2CN(C3CCN(C4CCC4)CC3)C(=O)CO2)n(C)n1 (configuration not stated) | 50 µM (inactive)
Cc1cccc(CC(=O)N2CCc3c2ccc(-c2cn(C)c4ncnc(N)c24)c3F)n1 | 6.7 µM (active)
COCCN1CCN(Cc2ccc(-c3n[nH]c4c3C(=O)c3c(NC(=O)NN5CCOCC5)cccc3-4)cc2)CC1 [RGB-286638] | 0.2 µM (active)
Cc1cc2c(=O)nc(-c3cc(OCC(F)F)ccn3)[nH]c2s1 | 2.2 µM (active)
C[C@H](O)CN1CCC(CNCc2cccc(Br)c2)CC1 | 9.4 µM (active)
CCN(CC)c1ccc(/C=C/C2=[N+](C)c3ccccc3C2(C)C)cc1 | 1.2 µM (active)
Nc1nc(S)c2ncn(C3OC(CO)C(O)C3O)c2n1 (configuration not stated) | 2.5 µM (active)
CN(C)C1CCN(C(C)(C)CNCc2cccc(Cl)c2N)CC1 | 12 µM (active)
N#CCNC(=O)c1ccc(-c2ccnc(Nc3ccc(N4CCOCC4)cc3)n2)cc1 [MOMELOTINIB] | 5.2 µM (active)
COc1cc(C(N)=O)ccc1NC(=O)[C@@H]1N[C@@H](CC(C)(C)C)[C@@]2(C(=O)Nc3cc(Cl)ccc32)[C@H]1c1cccc(Cl)c1F | 5.3 µM (inactive)
CC(=O)[C@]1(O)Cc2c(O)c3c(c(O)c2[C@@H](O[C@H]2C[C@H](N)[C@H](O)[C@H](C)O2)C1)C(=O)c1ccccc1C3=O [IDARUBICIN HYDROCHLORIDE] | 0.2 µM (active)
CC(N)Cc1ccc2oc3ccccc3c2c1 (configuration not stated) | 8 µM (active)
CC[C@@H]1C(=O)N(C)c2cnc(Nc3ccc(C(=O)N[C@H]4CC[C@H](N5CCN(CC6CC6)CC5)CC4)cc3OC)nc2N1C(C)C [VOLASERTIB] | 0.9 µM (active)
